From ChEMBL document CHEMBL3044637, “Microsomal delta 8,14-sterol delta 14-reductase in higher plants. Characterization and inhibition by analogues of a presumptive carbocationic intermediate of the reduction reaction” (Eur J Biochem, 1989)
pIC50: −log10 of the molar value.

Legend:
Sterol-8,7-isomerase = biological target: T1, Sterol-8,7-isomerase (Zea mays, UniProt Q2TU57); experiment: Inhibition of Zea mays (maize) delta8,delta7-sterol isomerase
T1 sequence (Q2TU57 whole entry): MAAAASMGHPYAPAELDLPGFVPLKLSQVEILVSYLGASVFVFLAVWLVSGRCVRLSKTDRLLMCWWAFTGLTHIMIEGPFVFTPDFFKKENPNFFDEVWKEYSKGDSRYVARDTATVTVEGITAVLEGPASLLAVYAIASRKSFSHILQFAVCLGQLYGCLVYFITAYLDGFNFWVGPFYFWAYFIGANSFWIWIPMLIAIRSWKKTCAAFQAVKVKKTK

[1] = biological target: T2, Delta(14)-sterol reductase (Zea mays, UniProt B4FS76); experiment: Inhibition of Zea mays (maize) microsomal delta 8,14-steroid 14-reductase using delta 8,14-cholestadienol as substrate after 90 min by GC analysis
T2 sequence (B4FS76 whole entry): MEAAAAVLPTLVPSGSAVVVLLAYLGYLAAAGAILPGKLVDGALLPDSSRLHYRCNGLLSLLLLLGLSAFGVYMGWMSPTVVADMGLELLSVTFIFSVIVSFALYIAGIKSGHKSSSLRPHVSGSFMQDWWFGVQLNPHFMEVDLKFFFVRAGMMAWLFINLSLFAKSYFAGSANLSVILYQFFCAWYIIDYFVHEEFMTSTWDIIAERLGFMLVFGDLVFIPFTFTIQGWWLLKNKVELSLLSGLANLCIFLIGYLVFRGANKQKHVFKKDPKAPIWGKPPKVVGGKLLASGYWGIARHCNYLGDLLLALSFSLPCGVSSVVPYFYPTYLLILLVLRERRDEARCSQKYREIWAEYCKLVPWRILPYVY

[2] = biological target: T3, Cycloeucalenol cycloisomerase (Zea mays) (UniProt B6TK44); experiment: Inhibition of Zea mays (maize) cycloeucalenol-obtusifolial isomerase at 200 uM
T3 sequence (whole entry): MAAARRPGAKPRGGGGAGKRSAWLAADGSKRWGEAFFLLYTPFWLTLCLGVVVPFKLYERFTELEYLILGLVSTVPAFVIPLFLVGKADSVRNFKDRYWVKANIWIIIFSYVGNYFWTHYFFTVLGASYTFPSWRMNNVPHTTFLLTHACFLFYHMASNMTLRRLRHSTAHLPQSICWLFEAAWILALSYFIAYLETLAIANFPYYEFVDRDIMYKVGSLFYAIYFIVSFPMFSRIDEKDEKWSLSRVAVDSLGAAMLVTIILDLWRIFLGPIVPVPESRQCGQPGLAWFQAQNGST

[3] = biological target: T4, Delta(14)-sterol reductase (Zea mays) (UniProt B4FS76); experiment: Ratio of compound I50 to delta8,14-cholestadien-3beta-ol Km for Zea mays (maize) delta 8,14-steroid 14-reductase
T4 sequence (whole entry): T2 sequence (B4FS76 whole entry)

[4] = biological target: T5, Cycloeucalenol cycloisomerase (Zea mays, UniProt B6TK44); experiment: Inhibition of Zea mays (maize) cycloeucalenol-obtusifolial isomerase
T5 sequence (B6TK44 whole entry): T3 sequence (whole entry)

[5] = biological target: T4, Delta(14)-sterol reductase (Zea mays); experiment: Inhibition of Zea mays (maize) microsomal delta 8,14-steroid 14-reductase using delta 8,14-cholestadienol as substrate at 200 uM after 90 min by GC analysis
[6] = biological target: T6, Sterol-8,7-isomerase (Zea mays) (UniProt Q2TU57); experiment: Inhibition of Zea mays (maize) delta8,delta7-sterol isomerase at 200 uM
T6 sequence (whole entry): T1 sequence (Q2TU57 whole entry)

SMILES	pIC50 (Sterol-8,7-isomerase)	pIC50 [1]	inhibition [2]	Ratio [3]	pIC50 [4]	inhibition [5]	inhibition [6]
C=C(CC[C@@H](C)[C@H]1CCN=C2C3=C(CC[C@@]21C)[C@@]1(C)CC[C@H](O)C[C@@H]1CC3)C(C)C	6.10	7.52	< 5%	0.00015	–	–	–
C[C@@H]1[C@@H](O)CC[C@]2(C)CN(Cc3ccccc3)CC[C@@H]12	6.89	7.10	–	–	7.00	–	–
CCCCCCCCCCCCN1CC[C@H]2[C@H](C)[C@@H](O)CC[C@]2(C)C1	–	7.05	–	–	7.00	–	–
CC(Cc1ccc(C(C)(C)C)cc1)CN1CCCCC1 (stereo not drawn) [FENPROPIDIN]	7.10	5.52	–	–	6.70	–	–
C[C@@H]1[C@@H](O)CC[C@]2(C)CCCC[C@@H]12	–	–	< 5%	–	–	< 5%	< 5%
C[C@@H]1[C@@H](O)CC[C@]2(C)CNCC[C@@H]12	5.00	5.35	–	–	4.76	–	–
CC(C)CCCC(C)CCCC(C)N1CC[C@H]2[C@H](C)[C@@H](O)CC[C@]2(C)C1 (stereo partly drawn)	6.70	6.52	–	–	7.60	–	–
CCCCCCCCCCCCCN1CC(C)OC(C)C1 (stereo not drawn) [TRIDEMORPH]	6.40	4.60	–	–	6.40	–	–
CC(Cc1ccc(C(C)(C)C)cc1)CN1CC[C@H]2[C@H](C)[C@@H](O)CC[C@]2(C)C1 (stereo partly drawn)	–	7.15	–	6.5e-05	7.00	–	–
Clc1ccccc1CNC[C@H]1CC[C@H](CNCc2ccccc2Cl)CC1	6.30	4.40	< 5%	–	–	–	–
CC(Cc1ccc(C(C)(C)C)cc1)CN1C[C@@H](C)O[C@@H](C)C1 (stereo partly drawn) [FENPROPIMORPH]	6.40	6.10	–	–	6.40	–	–
